The target of this experiment is T1, amylin receptor, AMY1, a CT (calcitonin) receptor/RAMP1 (receptor-activity modifying protein) complex (Homo sapiens, UniProt O60894+P30988).
T1 construct: host or cells: CHO-K1/AMY1/Gα15
The experiment can be described thus: Calcium flux assay (FLIPR Calcium 4) of inhibition of α-CGRP stimulation in CHO-K1/AMY1/Gα15 cells. Format: cell-based. The settings on record: for inhibition at 1 µM: at maximal test concentration (series starts with 1 μM), CHO-K1/AMY1/Gα15 cells stimulated with 32 nM (EC80) α-CGRP, n = 2, read-out: % Inhibition @ Maximal concentration (Mean +/− SD, n = 2). The procedure:
Using a calcium flux assay, the dose-dependent inhibitory response of peptide antagonists of the present invention on an amylin receptor, AMY1, a CT (calcitonin) receptor/RAMP1 (receptor-activity modifying protein) complex was determined. The recombinant cell line CHO-K1/AMY1/Gα15 (GenScript, Piscataway, N.J., Catalog No. M00475) was employed in the assay. Peptide antagonist activities were tested, in duplicate, at five different concentrations, starting with 1 μM and serially diluted five-fold, in DMSO. AC187 (SEQ ID NO: 55), a known amylin receptor antagonist (available for example from Tocris Bioscience, Minneapolis, Minn., Catalog No. 3419) was used as a positive control in the assays, and human α-CGRP, a known amylin receptor agonist (SEQ ID NO:56) , (available for example from Tocris Bioscience, Minneapolis, Minn., Catalog No. 3012) was used as a positive control in the assays. The FLIPR® Calcium 4 Assay Kit (Molecular Devices, Sunnyvale, Calif.) was used.
Human α-CGRP having the amino acid sequence, NH2-[…]-NH2 (SEQ ID NO:56) and AC187 having the sequence […] (SEQ ID NO: 55) were employed as negative and positive controls, respectively. Stock solutions were further diluted in HBSS-HEPES buffer to make 5×final control solutions.
CHO-K1/AMY1/Gα15 cells were seeded in a 384-well black wall, clear bottom plate at a density of 20,000 cells/well in 20 μL of growth medium 20 hours prior to the day of the experiment and maintained at 37° C./5% CO2.
Per the assay kit protocol, dye-loading solution (at 2×final concentration) was added into the assay plate, 20 μL per well. Compound solution (at 5 ×final concentration) was added into the assay plate, 10 uL per well. The assay plate was placed into a 37° C. incubator for 1 hour, then left for 15 min at RT. The agonist plate (at 5×EC80 concentration) was placed in Source 2. The total reading time was 120 sec. The agonist was added after 20 seconds reading of the baseline and the fluorescence signal was captured for another 100 seconds (21 s to 120 s).
In screening, cells stimulated with assay buffer were chosen as the background; cells stimulated with agonist (at […] concentration) were chosen as the negative control.
Data were recorded by ScreenWorks (version 3.1) as FMD files and stored on the GenScript computer network for off-line analysis. Data acquisition and analyses was performed using ScreenWorks (version 3.1) program and exported to Excel. The average value of 20 (1 s to 20 s) seconds reading was calculated as the baseline reading and the relative fluorescent units (ΔRFU) intensity values were calculated with the maximal fluorescent units (21 s to 120 s) subtracting the average value of baseline reading.
The IC50 value of AC187 was 8 μM. The inhibitory activity of the tested peptide antagonists was normalized with the negative control (AC187) and reported as % Inhibition, calculated from the following equation: % Inhibition=(ΔRFUcompound−ΔRFUBackground)/(ΔRFUNegative control−ΔRFUBackground) * 100% Inhibition was then plotted along the Y-axis, with the test concentrations as indicated on the X-axis. The peptides were tested at indicated concentrations and stimulated with 32 nM (EC80) α-CGRP (Mean +/− SD, n=2).
(In general: A change in cytosolic calcium serves as a functional read-out for many receptors and channels.)

Read-outs that look alike come from different tables or passages of the source. Positions of bridges follow the written chain, without caps; N, C: chain ends. Residues, ends and D or L forms follow the SMILES beside them. No end group written: not given here.

In general, IC50 refers to the concentration needed to halve the response being measured.

T1 sequence (P30988 25-474): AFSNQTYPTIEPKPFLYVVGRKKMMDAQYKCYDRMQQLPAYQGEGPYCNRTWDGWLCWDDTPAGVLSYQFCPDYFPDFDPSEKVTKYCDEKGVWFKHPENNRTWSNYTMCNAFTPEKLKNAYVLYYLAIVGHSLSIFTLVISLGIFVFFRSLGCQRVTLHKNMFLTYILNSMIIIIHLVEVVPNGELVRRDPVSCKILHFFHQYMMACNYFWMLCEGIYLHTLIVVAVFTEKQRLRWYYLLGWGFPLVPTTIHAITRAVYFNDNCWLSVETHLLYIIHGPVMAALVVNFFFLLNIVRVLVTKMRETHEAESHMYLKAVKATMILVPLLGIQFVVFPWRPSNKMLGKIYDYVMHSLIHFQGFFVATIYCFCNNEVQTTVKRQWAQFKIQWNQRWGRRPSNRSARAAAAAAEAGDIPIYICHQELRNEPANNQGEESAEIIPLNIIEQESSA
T1 sequence (O60894 27-148): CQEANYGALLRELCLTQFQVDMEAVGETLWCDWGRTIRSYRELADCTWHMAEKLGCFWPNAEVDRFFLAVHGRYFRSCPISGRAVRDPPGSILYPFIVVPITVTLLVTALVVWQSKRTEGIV

Regarding `CC(C)C[C@H](NC(=O)[C@H](CCCNC(=N)N)NC(=O)CNC(=O)[C@H](CC(C)C)NC(=O)[C@@H](NC(=O)[C@@H]1CSSC[C@H](NC(=O)[C@H](C)N)C(=O)N[C@@H](CC(=O)O)C(=O)N[C@@H]([C@@H](C)O)C(=O)N[C@@H](C)C(=O)N[C@@H](CO)C(=O)N1)C(C)C)C(=O)N[C@@H](CO)C(=O)N[C@@H](CCC(N)=O)C(=O)N[C@@H](CCC(=O)O)C(=O)N[C@@H](CC(C)C)C(=O)N[C@@H](Cc1c[nH]cn1)C(=O)N[C@@H](CCCNC(=N)N)C(=O)N[C@@H](CC(C)C)C(=O)N[C@@H](CCC(N)=O)C(=O)N[C@H](C(=O)N[C@@H](Cc1ccc(O)cc1)C(=O)N1CCC[C@H]1C(=O)N[C@@H](CCCNC(=N)N)C(=O)N[C@H](C(=O)N[C@@H](CC(N)=O)C(=O)N[C@H](C(=O)NCC(=O)N[C@@H](CO)C(=O)N[C@@H](CCCCN)C(=O)N[C@@H](C)C(=O)N[C@@H](Cc1ccccc1)C(N)=O)C(C)C)[C@@H](C)O)[C@@H](C)O` [compound 2] (H-ACDTASCVLGRLSQELHRLQTYPRTNVGSKAF-NH2; disulfide 2-7 (inferred)), the inhibition at 1 µM amounted to 96.5%. With `CC(C)C[C@H](NC(=O)[C@H](CCCNC(=N)N)NC(=O)CNC(=O)[C@H](CC(C)C)NC(=O)[C@@H](NC(=O)[C@@H]1CSSC[C@H](NC(=O)[C@H](C)N)C(=O)N[C@@H](CC(N)=O)C(=O)N[C@@H](CC(C)C)C(=O)N[C@@H](CO)C(=O)N[C@@H](C(C)C)C(=O)N1)C(C)C)C(=O)N[C@@H](CO)C(=O)N[C@@H](CCC(N)=O)C(=O)N[C@@H](CCC(=O)O)C(=O)N[C@@H](CC(C)C)C(=O)N[C@@H](Cc1c[nH]cn1)C(=O)N[C@@H](CCCNC(=N)N)C(=O)N[C@@H](CC(C)C)C(=O)N[C@@H](CCC(N)=O)C(=O)N[C@H](C(=O)N[C@@H](Cc1ccc(O)cc1)C(=O)N1CCC[C@H]1C(=O)N[C@@H](CCCNC(=N)N)C(=O)N[C@H](C(=O)N[C@@H](CC(N)=O)C(=O)N[C@H](C(=O)NCC(=O)N[C@@H](CO)C(=O)N[C@@H](CCCCN)C(=O)N[C@@H](C)C(=O)N[C@@H](Cc1ccccc1)C(N)=O)C(C)C)[C@@H](C)O)[C@@H](C)O` [compound 11] (H-ACNLSVCVLGRLSQELHRLQTYPRTNVGSKAF-NH2; disulfide 2-7 (inferred)), the inhibition at 1 µM came out at 96.5%. Same read-out and setting: under `CC(C)C[C@H](NC(=O)[C@H](CCCNC(=N)N)NC(=O)CNC(=O)[C@H](CC(C)C)NC(=O)[C@@H](NC(=O)[C@@H]1CSSC[C@H](NC(=O)[C@H](C)N)C(=O)N[C@@H](CC(=O)O)C(=O)N[C@@H]([C@@H](C)O)C(=O)N[C@@H](C)C(=O)N[C@@H](C)C(=O)N1)C(C)C)C(=O)N[C@@H](CO)C(=O)N[C@@H](CCC(N)=O)C(=O)N[C@@H](CCC(=O)O)C(=O)N[C@@H](CC(C)C)C(=O)N[C@@H](Cc1c[nH]cn1)C(=O)N[C@@H](CCCNC(=N)N)C(=O)N[C@@H](CC(C)C)C(=O)N[C@@H](CCC(N)=O)C(=O)N[C@H](C(=O)N[C@@H](Cc1ccc(O)cc1)C(=O)N1CCC[C@H]1C(=O)N[C@@H](CCCNC(=N)N)C(=O)N[C@H](C(=O)N[C@@H](CC(N)=O)C(=O)N[C@H](C(=O)NCC(=O)N[C@@H](CO)C(=O)N[C@@H](CCCCN)C(=O)N[C@@H](C)C(=O)N[C@@H](Cc1ccccc1)C(N)=O)C(C)C)[C@@H](C)O)[C@@H](C)O` [compound 1] (H-ACDTAACVLGRLSQELHRLQTYPRTNVGSKAF-NH2; disulfide 2-7 (inferred)) stands 94.4%. Take “VLGKLSQELHKLQTYPRTNTGSNTY [AC187, reference compound]”: the IC50 (CHO-K1/AMY1/Gα15 calcium flux, read-out: IC50 value) came out at 8000 nM and the IC50 (positive control, CHO-K1/AMY1/Gα15 cells stimulated with α-CGRP, read-out: IC50 nM (assay positive control)) worked out at 8150 nM.

Values taken from patent US10370425B2, “Peptide antagonists of the calcitonin CGRP family of peptide hormones and their use” (priority 2012, dated 2019).
